Experiments:
SMMC-7721 = test: Antiproliferative activity against human SMMC-7721 cells assessed as reduction in cell growth after 72 hrs by MTT assay; format: functional, cell-based; settings: SMMC-7721, 72 h
K562 [1] = test: Antiproliferative activity against human K562 cells assessed as reduction in cell growth after 72 hrs by MTT assay; format: functional, cell-based; settings: K562, 72 h
K562 [2] = test: Induction of cell cycle arrest in human K562 cells assessed as downregulation of cdc-25c expression incubated for 48 hrs by Western blot analysis; format: functional, cell-based; settings: dose 100-400 nM
K562 [3] = test: Induction of apoptosis in human K562 cells assessed as early apoptotic cells at 100 nM incubated for 48 hrs by Annexin-V and PI staining based flow cytometry analysis (reference value: 1.98%); format: functional
K562 [4] = test: Induction of apoptosis in human K562 cells assessed as early apoptotic cells at 200 nM incubated for 48 hrs by Annexin-V and PI staining based flow cytometry analysis (reference value: 1.98%); format: functional
K562 [5] = test: Induction of cell cycle arrest in human K562 cells assessed as downregulation of cyclin-B1 expression incubated for 48 hrs by Western blot analysis; format: functional, cell-based; settings: dose 100-400 nM
K562 [6] = test: Induction of cell cycle arrest in human K562 cells assessed as accumulation of cells at G2 phase at 400 nM incubated for 48 hrs by PI staining based flow cytometry analysis (reference value: 12.31%); format: functional
K562 [7] = test: Induction of ROS generation in human K562 cells at 400 nM incubated for 48 hrs by DCFH-DA staining based flow cytometry analysis (reference value: 4.82%); format: functional
[8] = Selectivity index, ratio of IC50 for human L02 cells to IC50 for human SMMC-7721 cells; format: toxicity; settings: L02 cells versus SMMC-7721 cells, read-out: Ratio IC50
K562 [9] = test: Induction of cell cycle arrest in human K562 cells assessed as accumulation of cells at S phase at 100 nM incubated for 48 hrs by PI staining based flow cytometry analysis (reference value: 18.85%); format: functional
K562 [10] = test: Induction of cell cycle arrest in human K562 cells assessed as accumulation of cells at S phase at 400 nM incubated for 48 hrs by PI staining based flow cytometry analysis (reference value: 18.85%); format: functional
Cell membrane [11] = test: Induction of mitochondrial membrane depolarization in human K562 cells incubated for 48 hrs by JC-1 staining based flow cytometry analysis; settings: Mitochondria, dose […]
K562 [12] = test: Induction of apoptosis in human K562 cells assessed as necrotic cells at 200 nM incubated for 48 hrs by Annexin-V and PI staining based flow cytometry analysis (reference value: 1.72%); format: functional
SW480 = test: Antiproliferative activity against human SW480 cells assessed as reduction in cell growth after 72 hrs by MTT assay; format: functional, cell-based; settings: SW480, 72 h
K562 [13] = test: Induction of apoptosis in human K562 cells assessed as viable cells at 200 nM incubated for 48 hrs by Annexin-V and PI staining based flow cytometry analysis (reference value: 93.87%); format: functional; settings: read-out: Activity
K562 [14] = test: Induction of ROS generation in human K562 cells incubated for 48 hrs by DCFH-DA staining based flow cytometry analysis; format: functional, cell-based; settings: dose […]
K562 [15] = test: Induction of apoptosis in human K562 cells assessed as late apoptotic cells at 200 nM incubated for 48 hrs by Annexin-V and PI staining based flow cytometry analysis (reference value: 2.42%); format: functional
K562 [16] = test: Induction of cell cycle arrest in human K562 cells assessed as downregulation of cdc-2 expression incubated for 48 hrs by Western blot analysis; format: functional, cell-based; settings: dose 100-400 nM
K562 [17] = test: Potency index, ratio of oridonin IC50 to compound IC50 for antiproliferative activity against human K562 cells after 72 hrs by MTT assay; format: functional
K562 [18] = test: Induction of apoptosis in human K562 cells assessed as late apoptotic cells at 100 nM incubated for 48 hrs by Annexin-V and PI staining based flow cytometry analysis (reference value: 2.42%); format: functional
Cell membrane [19] = test: Induction of mitochondrial membrane depolarization in human K562 cells assessed as lower right phase cells at […] incubated for 48 hrs by JC-1 staining based flow cytometry analysis; settings: Mitochondria
K562 [20] = test: Induction of cell cycle arrest in human K562 cells assessed as accumulation of cells at G1 phase at 100 nM incubated for 48 hrs by PI staining based flow cytometry analysis (reference value: 68.84%); format: functional
K562 [21] = test: Induction of cell cycle arrest in human K562 cells assessed as accumulation of cells at G1 phase at 200 nM incubated for 48 hrs by PI staining based flow cytometry analysis (reference value: 68.84%); format: functional
K562 [22] = test: Induction of apoptosis in human K562 cells assessed as late apoptotic cells at 400 nM incubated for 48 hrs by Annexin-V and PI staining based flow cytometry analysis (reference value: 2.42%); format: functional
MDA-MB-231 = test: Antiproliferative activity against human MDA-MB-231 cells assessed as reduction in cell growth after 72 hrs by MTT assay; format: functional, cell-based; settings: MDA-MB-231, 72 h
K562 [23] = test: Induction of apoptosis in human K562 cells assessed as viable cells at 400 nM incubated for 48 hrs by Annexin-V and PI staining based flow cytometry analysis (reference value: 93.87%); format: functional; settings: read-out: Activity
K562 [24] = test: Induction of apoptosis in human K562 cells assessed as necrotic cells at 400 nM incubated for 48 hrs by Annexin-V and PI staining based flow cytometry analysis (reference value: 1.72%); format: functional
K562 [25] = test: Induction of cell cycle arrest in human K562 cells assessed as accumulation of cells at S phase at 200 nM incubated for 48 hrs by PI staining based flow cytometry analysis (reference value: 18.85%); format: functional
K562 [26] = test: Induction of cell cycle arrest in human K562 cells assessed as accumulation of cells at G2 phase at 100 nM incubated for 48 hrs by PI staining based flow cytometry analysis (reference value: 12.31%); format: functional
K562 [27] = test: Induction of apoptosis in human K562 cells assessed as viable cells at 100 nM incubated for 48 hrs by Annexin-V and PI staining based flow cytometry analysis (reference value: 93.87%); format: functional; settings: read-out: Activity
[28] = Cytotoxicity against human L02 cells incubated for 72 hrs by MTT assay; format: toxicity, cell-based
K562 [29] = test: Induction of apoptosis in human K562 cells assessed as necrotic cells at 100 nM incubated for 48 hrs by Annexin-V and PI staining based flow cytometry analysis (reference value: 1.72%); format: functional
K562 [30] = test: Induction of cell cycle arrest in human K562 cells assessed as accumulation of cells at G1 phase at 400 nM incubated for 48 hrs by PI staining based flow cytometry analysis (reference value: 68.84%); format: functional
K562 [31] = test: Induction of apoptosis in human K562 cells assessed as early apoptotic cells at 400 nM incubated for 48 hrs by Annexin-V and PI staining based flow cytometry analysis (reference value: 1.98%); format: functional
K562 [32] = test: Induction of cell cycle arrest in human K562 cells assessed as accumulation of cells at G2 phase at 200 nM incubated for 48 hrs by PI staining based flow cytometry analysis (reference value: 12.31%); format: functional

IC50 (SMMC-7721): 560 nM
IC50 (K562 [1]): 400 nM
Activity (Cell membrane [11]): Dose-Dependent Effect
IC50 (SW480): 480 nM
Activity (Cell membrane [19]): 28.4%
IC50 (MDA-MB-231): 980 nM
SMILES: C=C1C(=O)[C@@]23C(=O)OC[C@]4(C=CCC(C)(C)[C@H]4C=O)[C@@H]2CC[C@@H]1[C@H]3OC(=O)/C=C/c1cccnc1
Activity (K562 [2]): Dose-Dependent Effect
Activity (K562 [3]): 5.01%
Activity (K562 [4]): 7.6%
Activity (K562 [5]): Dose-Dependent Effect
Activity (K562 [6]): 20.53%
Activity (K562 [7]): 27.83%
selectivity ratio [8]: 7.64
Activity (K562 [9]): 20.6%
Activity (K562 [10]): 24.28%
Activity (K562 [12]): 4.23%
viability at 0.2 µM (K562 [13]): 80.9%
Activity (K562 [14]): Dose-Dependent Effect
Activity (K562 [15]): 7.23%
Activity (K562 [16]): Dose-Dependent Effect
Ratio IC50 (K562 [17]): 10
Activity (K562 [18]): 5.59%
Activity (K562 [20]): 64.33%
Activity (K562 [21]): 61.3%
Activity (K562 [22]): 15.5%
viability at 0.4 µM (K562 [23]): 68.7%
Activity (K562 [24]): 6.37%
Activity (K562 [25]): 24.8%
Activity (K562 [26]): 15.07%
viability at 0.1 µM (K562 [27]): 86%
IC50 at 72 h [28]: 4280 nM
Activity (K562 [29]): 3.37%
Activity (K562 [30]): 55.2%
Activity (K562 [31]): 9.41%
Activity (K562 [32]): 13.9%

Source: ChEMBL document CHEMBL5325391, “Spirolactone-type and enmein-type derivatives as potential anti-cancer agents derived from oridonin” (Bioorg Med Chem, 2022)
